Test results as given in ChEMBL document CHEMBL1139988, “Discovery of structurally diverse HIV-1 integrase inhibitors based on a chalcone pharmacophore” (Bioorg Med Chem, 2007).
pIC50: −log10 of the molar value. Where “and” joins values, the source holds several entries; their conditions need not be identical. Equal values may be shown once.

How the values were obtained:
[1] = target: T1, Human immunodeficiency virus type 1 integrase (Human immunodeficiency virus 1, UniProt Q7ZJM1); experiment: Inhibition of HIV1 integrase strand transfer activity
[2] = target: T1, Human immunodeficiency virus type 1 integrase; experiment: Inhibition of HIV1 integrase 3'-end processing activity

T1 sequence (Q7ZJM1 whole entry): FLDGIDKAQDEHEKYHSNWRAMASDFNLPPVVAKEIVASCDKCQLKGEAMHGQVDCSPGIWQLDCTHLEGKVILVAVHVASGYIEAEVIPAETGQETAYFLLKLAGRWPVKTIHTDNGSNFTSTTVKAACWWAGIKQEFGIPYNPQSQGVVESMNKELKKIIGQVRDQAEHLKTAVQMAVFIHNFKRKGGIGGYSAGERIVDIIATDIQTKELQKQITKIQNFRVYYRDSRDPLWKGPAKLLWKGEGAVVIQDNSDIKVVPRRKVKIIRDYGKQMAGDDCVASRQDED

Row | SMILES | pIC50 [1] | pIC50 [2]
1 | Cc1ccc(NC(=O)CN2C(=O)/C(=N\NC(=O)c3ccc4ccccc4n3)c3ccccc32)cc1 | 4.08 | 4.08
2 | O=C(O)c1cc(-c2ccc(/C=N/Nc3nc4nonc4nc3Nc3ccccc3F)o2)ccc1Cl | 5.40 | 5.15
3 | CCc1nc2sc3c(c2c2nnc(SCC(=O)NNC(=O)c4ccc(OC)cc4)n12)CCCC3 | 4.00 | < 4.00
4 | CC(=O)Nc1ccc2c(c1)OCCOCCOc1cc(NC(C)=O)ccc1OCCOCCO2 | 3.17 | 3.17
5 | Cc1ccc(O)c(/C=N/Nc2nc3c(c(=O)[nH]c(=O)n3C)n2Cc2ccccc2)c1 | < 4.00 | < 4.00
6 | O=C1Nc2ccccc2/C1=N\NC(=O)c1ccc(O)cc1O | 4.44 | < 4.00
7 | COc1cc(C(NC(=O)c2ccco2)NC(=O)c2ccco2)ccc1OCc1ccccc1 | < 4.00 | < 4.00
8 | COc1cccc(C(=O)NNC(=O)c2ccc3ccccc3c2O)c1 | 4.48 | 4.38
9 | O=C(CCC(=O)Nc1ccc([N+](=O)[O-])c(C(F)(F)F)c1)Nc1ccc([N+](=O)[O-])c(C(F)(F)F)c1 | 3.68 | 3.71
10 | O=c1nc2n(-c3ccc(Cl)cc3)c3ccc([N+](=O)[O-])cc3cc-2c(=O)[nH]1 | 4.31 | 4.11
11 | Cn1c(=O)[nH]c(=O)c2c1nc(SCC(O)CCl)n2CC(O)COc1ccc(Cl)cc1 (stereo not given) | < 4.00 | < 4.00
12 | O=C(NNC(=O)c1c(O)c2ccccc2[nH]c1=O)c1ccccc1 | 4.55 | 4.00
13 | O=C(CNC(=O)c1ccc(Cl)cc1)OCC(=O)c1ccc([N+](=O)[O-])cc1 | 3.27 | 3.24
14 | O=C(NNC(=O)c1c(O)c2ccccc2[nH]c1=O)c1cccc([N+](=O)[O-])c1 | 6.00 | 5.48
15 | O=C(/C=C/c1ccccc1O)c1ccc(O)cc1O | 4.33 | 4.28
16 | O=C(N/N=C/c1ccc(O)c(O)c1)c1ccccc1O | 4.59 | 4.15
17 | O=C(CSc1nc(O)c2ccccc2n1)c1ccc(O)c(O)c1 | 4.11 | 4.06
18 | O=C(/C=C/c1cccc(NC(=O)c2cccs2)c1)c1ccccc1 | 4.05 | < 4.00
19 | CCn1c(=O)c(C(=O)NNC(=O)c2cccc([N+](=O)[O-])c2)c(O)c2ccccc21 | 4.77 | 4.43
20 | O=C(/C=C/c1ccc2c(c1)OCO2)c1ccccc1O | < 4.00 | < 4.00

Row | SMILES | pIC50 [1] | pIC50 [2]
21 | O=C(CSc1nc(SCC(=O)NCc2ccco2)nc(SCC(=O)NCc2ccco2)n1)NCc1ccco1 | 4.92 | 4.55
22 | Cc1cc(C)cc(OCC(=O)NNC(=O)c2cc3ccccc3oc2=O)c1 | 4.14 | 4.13
23 | CCc1cccc2c(SCC(=O)NNC(=O)c3ccccc3[N+](=O)[O-])nc(-c3ccc(F)cc3)nc12 | 4.00 | < 4.00
24 | O=C(O)c1ccc(NCN2C(=O)c3ccc([N+](=O)[O-])cc3C2=O)cc1 | 3.74 and 3.72 | 3.74 and 3.86
25 | O=C(COc1ccc2ccccc2c1)NNC(=O)c1cc2ccccc2cc1O | 4.92 | 4.74
26 | COc1ccc(C(=O)NNC(=O)c2cc3ccccc3cc2O)cc1 | 4.74 | 4.31
27 | CCN(CC)c1nc(N/N=C/c2ccc([N+](=O)[O-])cc2)nc(Nc2ccc(C)c(Cl)c2)n1 | 3.70 | 3.72
28 | O=C1Nc2ccccc2/C1=N/NC(=O)c1ccccc1O | 4.24 | < 4.00
29 | O=C(N/N=C/c1c[nH]c2ccccc12)c1ccc(O)c(O)c1 | 3.34 | < 3.00
30 | O=C(O)COc1ccccc1/C=N/Nc1nncc(-c2ccccc2)n1 | 3.65 | 3.67
31 | CCCOc1ccc(/C=N/NC2=NC(c3ccccc3O)CC(c3ccccc3)=N2)c(O)c1 (stereo not given) | 4.22 | 4.19
32 | O=S(=O)(Nc1ccc(Br)cc1)c1ccc(Sc2ccc(S(=O)(=O)Nc3ccc(Br)cc3)cc2)cc1 | 3.60 | 3.79
33 | CCCn1c(=O)c(C(=O)NNC(=O)CC(=O)OCC)c(O)c2ccccc21 | 4.32 | < 4.00
34 | CCCn1c(=O)c(C(=O)NNC(=O)COc2ccccc2)c(O)c2ccccc21 | < 4.00 | < 4.00
35 | Oc1ccc(Cl)cc1/C=C/c1ccc2cccc(O)c2n1 | 3.66 | 3.71
36 | Nc1ccc(C(=O)CC(=O)Nc2cc(C(=O)O)cc(C(=O)O)c2)cc1 | 4.37 | 4.39
37 | CCOc1cc(Br)cc(/C=N/c2ncccc2O)c1O | 4.09 | 3.84
38 | CCCC(=O)NC(c1ccc(OC)c(OC)c1)c1cc(Cl)c2cccnc2c1O (stereo not given) | 4.05 | < 4.00
39 | COc1ccc(NC(=O)c2cccc(S(=O)(=O)Nc3ccc(C(=O)O)cc3)c2)cc1 | 4.15 | 4.10
40 | O=C(NNC(=O)c1c(O)c2ccccc2[nH]c1=O)c1ccccc1F | 4.52 | 4.28
